Measured values as given in patent publication US8703727B2, “Nanotechnology formulation of poorly soluble compounds” (Aphios Corporation, priority 2010, dated 2014).
In brackets after ≈: the same amount, converted by molar mass. Like-named read-outs stand apart in the source and are kept apart here.

Legend:
[1] = Preliminary solubility experiments in methanol; format: physicochemical
Description: Samples were weighed into 20-mL scintillation vials and 10 mL of methanol pipetted into each vial. […] An additional 10 mL of methanol was added to each of these vials. Now sample 3 dissolved completely, but particles still remained in sample 5. An additional 20 mL of methanol was added to sample 5, but on sonication, the small quantity of particles still remained.

[2] = HPLC of old standard solutions stored at room temperature; format: physicochemical
[3] = Solubility of S4 and S5 in methanol and ethanol (saturated solution, HPLC); format: physicochemical; details: 25° C.; for solubility at 5 min: organic solvent or mixture, thermodynamic from solid
Description: HPLC Method • Column: Phenomenex Luna C18(2), 15-cm×4.6 mm. • Buffer Concentrate (BC): 100 mL Et3N×80 mL 85% H3PO4 to 1000 mL with water. • Mobile Phase B=250 mL ACN+10 mL of BC to 1000 mL with water. • Mobile Phase C=100% ACN • Isocratic Mixture: 60% Phase B and 40% Phase C. • Alternatively, use 55% Acetonitrile with 3-mL Buffer Concentrate/1000 mL • Flow=1.5 mL/min Temperature=30° C. Wavelength=330 nm Injection=20 μL
Procedure for Formation of a Saturated Solution • 1. Weigh in duplicate approximately 100 milligrams of each standard into 1.5 mL mini-centrifuge tubes. • 2. Add 1.00 mL of Methanol to a S4 tube and 1.00 mL of Ethanol to the other S4 tube. Add 1.00 mL of Methanol to a S5 tube and 1.00 mL of Ethanol to the other S5 tube. • 3. Shake all four tubes for 5 minutes at room temperature (25° C.). • 4. Centrifuge at 6000 rpm for 10 minutes. The supernatant should be a saturated solution. • 5. Assay the supernatants by HPLC. Use a 20/1000 dilution in methanol. The target absorbance is 0.40 AU. A reasonable absorbance range is 0.10 to 1.20. If the absorbance that is found is outside of this range, dilute appropriately to bring the absorbance close to 0.40.

[4] = Solubility of aminoflavone in DI water and 1% PVA (HPLC); format: physicochemical; details: for solubility at 5 min: thermodynamic from solid
Description: Procedure: • 1. Weigh 5-10 mg of Aminoflavone into two 20 mL scintillation vials. • 2. Pipette 10 mL of water into Vial A and 10 mL of 1% PVA into Vial B. • 3. Shake the vials gently for about 5 minutes. Then let stand for 30 minutes. • 4. Carefully withdraw 0.9 mL from each vial for HPLC Analysis • 5. Shake the samples again and transfer to 50 mL Centrifuge tubes. • 6. Centrifuge for 20 minutes at 2500 rpm • 7. Again carefully withdraw 0.9 mL from each for HPLC Analysis.
Shaking the Aminoflavone in either water or 1% Aqueous PVA results in a dispersion of small particles that are difficult to see. They are suspended in the solution. HPLC duplication will be very poor since the “solution” is not uniform suspension of different size particles.

[5] = Solubility of aminoflavone in Freon-22 / ethanol (BPN-06, BPN-07, BPN-08); format: physicochemical; details: 40 °C, organic solvent or mixture, thermodynamic from solid
Description: Three supercritical, critical or near critical fluid solubility experiments were conducted on the aminoflavone prodrug (NSC 686288). The experiments were conducted with 100% (neat) Freon-22 at 3,000 psig (BPN-06), and 40° C., 90% Freon-22/10% ethanol at 3,000 psig and 40° C. (BPN-07) and 80% Freon-22/20% ethanol at 3,000 psig and 40° C. (BPN-08). These supercritical, critical or near critical fluid and conditions were selected on the basis of previous experience.
A 5.0 mL sample loop was utilized and each collection vial contained 5.0 ml of the same liquid as the sample loop rinse. Methanol was used as the collection fluid and sample rinse in BPN-06; ethanol was utilized as the collection fluid and sample rinse in BPN-07 and BPN-08. Samples were collected after circulation for 60, 75, 90, 105 and 120 minutes; the sample loop was then flushed of CO2 (except BPN-06). The fractions were then analyzed by HPLC. Each solubility data point is the average of 5 measurements.

[6] = HPLC analysis for degradation after supercritical fluid particle size reduction; format: physicochemical; details: nitrogen 3,000 psig, 60 minutes, rapid depressurization
Description: Three nanoparticles experiments were conducted—two with surrogate compounds and one with aminoflavone prodrug (Sample 5). In general, the poorly water-soluble anticancer compound was first saturated with water by placement in the vapor generated by a 39° C. temperature water bath for 60 minutes. The water-saturated sample was then frozen in a −80° C. freezer for 60 minutes. The frozen particles were then placed in the chamber of the nanoparticles apparatus (FIG. 2) and contacted with nitrogen at 3,000 psig for 60 minutes to ensure maximum saturation of the hydrophobic anticancer compound by the SFS. The materials were then rapidly depressurized, discharging the chamber contents into a collection container. The experiments were conducted following Standard Operating Procedure SOP #APH-S0603 and Drawing #9706-001 Rev 2 in Appendix C.
Three samples in aluminum weigh boats with contents weight of 0.4 to 0.5 mg was provided. To obtain the assay solution, each boat was placed in a sonicator bath filled to a height of 3 mm with water. Ten milliliters of methanol was pipetted into the boat and the sonicator was turned on for 20 seconds. The yellow residue in the boat dissolved completely in less than 5 seconds. After sonication, the sample was drawn back into the 10 mL pipette and transferred to a 20 mL scintillation vial to await HPLC assay. […]

[7] = HPLC analysis of 0.45 micron filter filtrate of BPN-20 in 1% PVA; format: physicochemical
Description: Procedure: • 1. Write A, B, C, and D on each of four 0.45 micron 47 mm Nylon 66 filters with a soft pencil. • 2. Weigh each of the filters. • 3. Draw Methanol through Filter A and set on a paper towel to dry. • 4. Weigh about 10 mg of aminoflavone onto Filter B and get an accurate weight. • 5. Draw 100 mL of Methanol through Filter B and bring to 100 mL in a 100 mL vol flask • 6. Set Filter B aside to dry on a paper towel. • 7. Draw 20 mL of 1% PVA through Filter C and set on a paper towel to dry. • Save the Filtrate for HPLC Assay • 8. Draw 20 mL of BPN-20 yellow ppt through Filter D and set on a paper towel to dry. • Save the Filtrate for HPLC Assay • 9. Place all four filters in the vacuum oven for 1 hour at 60 C. Then weigh the filters. • 10. Draw 100 mL of Methanol through Filters C and D. Bring to 100 mL with Methanol. • 11. Dry, vacuum oven, and get an accurate weight on filters C and D.

[8] = cited from earlier work
[9] = molar-equivalent basis; cited from earlier work

CC1=C(/C=C/C(C)=C/C=C/C(C)=C/C(=O)Nc2ccc(O)cc2)C(C)(C)CCC1 [Sample 2, Fenretinide (4HPR)]
S = mg/100 mL (preliminary solubility in methanol) [1]: >163 mg/100 mL | decomposition of old standard solution ([2]; methanol solution stored at room temperature on the laboratory bench): showed decomposition products

C=CCNC1=C2C[C@@H](C)C[C@H](OC)[C@H](O)[C@@H](C)/C=C(\C)[C@H](OC(N)=O)[C@@H](OC)/C=C\C=C(/C)C(=O)NC(=CC1=O)C2=O [Sample 4, 17-Allylamino Demethoxygeldanamycin (17-AAG)]
S = mg/100 mL (preliminary solubility in methanol) [1]: >220 mg/100 mL | Solubility (mg/100 mL) ([3]; Ethanol): 1478 mg/100 mL | Solubility (mg/100 mL) ([3]; Methanol): 4260 mg/100 mL | solubility at 5 min ([3]; Ethanol): 1480 µg/mL (≈ 2520 µM) | solubility at 5 min ([3]; Methanol): 4260 µg/mL (≈ 7270 µM) | decomposition of old standard solution ([2]; methanol solution exposed to room light and temperature for several weeks): only tiny decomposition peaks

Cc1c(F)c(N)c2c(=O)cc(-c3ccc(N)c(F)c3)oc2c1F [Sample 5, Aminoflavone]
S = mg/100 mL (preliminary solubility in methanol) [1]: 48 mg/100 mL | solubility ([1]; organic solvent or mixture, thermodynamic from solid, read-out: measured solubility in methanol): 480 µg/mL (≈ 1500 µM) | solubility at 5 min ([4]; 1% PVA in water, aqueous with cosolvent or surfactant or cyclodextrin, 1% PVA after centrifugation, average, read-out: average (actual) solubility): 0.22 µg/mL (≈ 0.687 µM) | solubility at 5 min ([4]; 1% PVA in water, aqueous with cosolvent or surfactant or cyclodextrin, 1% PVA after centrifugation, read-out: Solubility): 0.2 µg/mL (≈ 0.624 µM) | solubility at 5 min ([4]; 1% PVA in water, aqueous with cosolvent or surfactant or cyclodextrin, 1% PVA, after shaking, before centrifugation, read-out: Solubility): 14 µg/mL (≈ 43.7 µM) | solubility at 5 min ([4]; 1% PVA in water, aqueous with cosolvent or surfactant or cyclodextrin, 1% PVA, before centrifugation, average, read-out: average (apparent) solubility): 12.1 µg/mL (≈ 37.6 µM) | average (apparent) solubility ([4]; 1% PVA, before centrifugation, average): 12 µg/mL | average solubility ([4]; DI water after centrifugation, average): 0.31 µg/mL | solubility at 5 min ([4]; DI water, water, DI water after centrifugation, average, read-out: average solubility): 0.33 µg/mL (≈ 1.03 µM) | solubility at 5 min ([4]; DI water, water, DI water after centrifugation, read-out: Solubility): 0.34 µg/mL (≈ 1.06 µM) | solubility at 5 min ([4]; DI water, water, DI water, after shaking, before centrifugation, read-out: Solubility): 7.84 µg/mL (≈ 24.5 µM) | solubility at 5 min ([4]; DI water, water, DI water, before centrifugation, average, read-out: average solubility): 10.7 µg/mL (≈ 33.3 µM) | Solubility (mg/100 mL) ([3]; Ethanol): 240 mg/100 mL | Solubility (mg/100 mL) ([3]; Methanol): 280 mg/100 mL | solubility at 5 min ([3]; Ethanol): 240 µg/mL (≈ 749 µM) | solubility at 5 min ([3]; Methanol): 280 µg/mL (≈ 874 µM) | solubility ([5]; BPN-06: Freon-22 100 vol %, ethanol 0 vol %, 3,000 psig and 40° C.): 65 µg/mL (≈ 203 µM) | solubility ([5]; BPN-07: Freon-22 90 vol %, ethanol 10 vol %, 3,000 psig and 40° C.): 108 µg/mL (≈ 337 µM) | solubility ([5]; BPN-08: Freon-22 80 vol %, ethanol 20 vol %, 3,000 psig and 40° C.): 116 µg/mL (≈ 362 µM) | product degradation of treated materials versus untreated controls (HPLC) [6]: did not indicate any product degradation | solubility in 1% PVA [7]: essentially insoluble | solubility in DMSO ([8]; DMSO): readily soluble | solubility ([8]; pH 4 and pH 7): 0.126 to 0.188 µg/mL | aqueous solubility ([8]; pH 10 (glycine buffer)): 0.65 µg/mL (≈ 2.03 µM) | toxicity of intravenous treatments versus prodrug NSC 710464D [9]: less toxic

CCCCCCCCCCCCCCC[C@H](O)[C@@H](N)CO [Sample 3, Safingol]
S = mg/100 mL (preliminary solubility in methanol) [1]: >87 mg/100 mL
